# From ChEMBL document CHEMBL1201862, “PubChem BioAssay data set” (2004)
# Active and inactive are the calls of the source.
# Columns and labels:
# [1] = biological target: T1, RNA-binding protein pos-1 (Caenorhabditis elegans, UniProt G5EF15); test: disruptors of C. elegans POS-1 RNA interaction – biochemical, fluorescence polarization, dose response (AID 1964);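 also: purified POS-1 fused to maltose binding protein made in E. coli; potency of compounds blocking POS-1 binding to fluorescent RNA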
# T1 sequence (G5EF15 whole entry): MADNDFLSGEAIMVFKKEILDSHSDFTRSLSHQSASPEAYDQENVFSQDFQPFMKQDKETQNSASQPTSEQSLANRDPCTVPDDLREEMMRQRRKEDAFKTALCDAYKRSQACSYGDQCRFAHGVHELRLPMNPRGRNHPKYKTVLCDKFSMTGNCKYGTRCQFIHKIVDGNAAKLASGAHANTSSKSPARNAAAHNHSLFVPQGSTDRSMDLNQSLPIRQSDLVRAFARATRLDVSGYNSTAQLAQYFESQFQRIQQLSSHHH
# [2] = biological target: T2, Zinc finger protein mex-5 (Caenorhabditis elegans, UniProt Q9XUB2); test: potency of MEX-5 RNA-binding blockers – biochemical, C. elegans, fluorescence polarization, dose response (AID 1960)
# T2 sequence (Q9XUB2 whole entry): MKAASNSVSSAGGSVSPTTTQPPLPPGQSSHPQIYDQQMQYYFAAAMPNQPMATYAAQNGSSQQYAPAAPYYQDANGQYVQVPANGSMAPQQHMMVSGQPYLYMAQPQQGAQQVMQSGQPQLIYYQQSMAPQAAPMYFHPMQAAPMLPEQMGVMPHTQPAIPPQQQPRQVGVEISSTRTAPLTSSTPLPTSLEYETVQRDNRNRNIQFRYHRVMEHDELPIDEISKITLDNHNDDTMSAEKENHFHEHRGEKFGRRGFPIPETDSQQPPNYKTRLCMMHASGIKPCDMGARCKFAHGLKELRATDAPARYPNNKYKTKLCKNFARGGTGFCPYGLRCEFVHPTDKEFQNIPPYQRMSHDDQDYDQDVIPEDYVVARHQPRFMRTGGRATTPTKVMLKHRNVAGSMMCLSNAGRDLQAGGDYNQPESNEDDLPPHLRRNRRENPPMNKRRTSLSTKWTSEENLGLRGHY
# [3] = biological target: T3, Replicative DNA helicase DnaB (Mycobacterium tuberculosis, UniProt P9WMR3); test: DnaB intein splicing inhibitors, dose response, biochemical, cell-free fluorescence (AID 449749); type: functional
# T3 sequence (P9WMR3 whole entry): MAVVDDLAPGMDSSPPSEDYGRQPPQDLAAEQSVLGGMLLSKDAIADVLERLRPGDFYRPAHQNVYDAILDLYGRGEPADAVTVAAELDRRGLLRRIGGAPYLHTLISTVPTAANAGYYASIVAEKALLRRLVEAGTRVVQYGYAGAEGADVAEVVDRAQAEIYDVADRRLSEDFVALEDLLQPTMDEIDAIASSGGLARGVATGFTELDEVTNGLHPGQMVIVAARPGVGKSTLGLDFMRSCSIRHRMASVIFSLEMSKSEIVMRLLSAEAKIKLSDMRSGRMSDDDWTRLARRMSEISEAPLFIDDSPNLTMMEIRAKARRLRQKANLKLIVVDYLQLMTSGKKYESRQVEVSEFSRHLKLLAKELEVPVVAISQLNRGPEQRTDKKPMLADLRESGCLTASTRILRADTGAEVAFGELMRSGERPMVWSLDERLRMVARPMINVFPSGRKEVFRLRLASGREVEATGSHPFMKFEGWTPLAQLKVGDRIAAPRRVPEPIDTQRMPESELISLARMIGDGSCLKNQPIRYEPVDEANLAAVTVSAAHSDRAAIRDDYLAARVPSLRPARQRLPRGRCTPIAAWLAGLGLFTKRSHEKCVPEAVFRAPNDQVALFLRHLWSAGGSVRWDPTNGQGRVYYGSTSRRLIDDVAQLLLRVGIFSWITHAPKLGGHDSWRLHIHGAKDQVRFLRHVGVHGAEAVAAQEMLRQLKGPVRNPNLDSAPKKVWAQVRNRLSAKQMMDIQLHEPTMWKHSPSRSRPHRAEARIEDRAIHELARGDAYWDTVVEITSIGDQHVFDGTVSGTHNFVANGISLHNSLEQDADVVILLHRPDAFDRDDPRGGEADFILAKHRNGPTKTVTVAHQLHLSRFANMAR
# Protein RecA = biological target: T4, Protein RecA (Mycobacterium tuberculosis, UniProt P9WHJ3); test: Fluorescence Cell-Free Homogeneous Dose Retest to Identify Inhibitors of RecA-Intein Splicing Activity. [Related pubchem assays (depositor defined):AID2097, AID2223, AID489010, AID492950]; type: functional
# T4 sequence (P9WHJ3 whole entry): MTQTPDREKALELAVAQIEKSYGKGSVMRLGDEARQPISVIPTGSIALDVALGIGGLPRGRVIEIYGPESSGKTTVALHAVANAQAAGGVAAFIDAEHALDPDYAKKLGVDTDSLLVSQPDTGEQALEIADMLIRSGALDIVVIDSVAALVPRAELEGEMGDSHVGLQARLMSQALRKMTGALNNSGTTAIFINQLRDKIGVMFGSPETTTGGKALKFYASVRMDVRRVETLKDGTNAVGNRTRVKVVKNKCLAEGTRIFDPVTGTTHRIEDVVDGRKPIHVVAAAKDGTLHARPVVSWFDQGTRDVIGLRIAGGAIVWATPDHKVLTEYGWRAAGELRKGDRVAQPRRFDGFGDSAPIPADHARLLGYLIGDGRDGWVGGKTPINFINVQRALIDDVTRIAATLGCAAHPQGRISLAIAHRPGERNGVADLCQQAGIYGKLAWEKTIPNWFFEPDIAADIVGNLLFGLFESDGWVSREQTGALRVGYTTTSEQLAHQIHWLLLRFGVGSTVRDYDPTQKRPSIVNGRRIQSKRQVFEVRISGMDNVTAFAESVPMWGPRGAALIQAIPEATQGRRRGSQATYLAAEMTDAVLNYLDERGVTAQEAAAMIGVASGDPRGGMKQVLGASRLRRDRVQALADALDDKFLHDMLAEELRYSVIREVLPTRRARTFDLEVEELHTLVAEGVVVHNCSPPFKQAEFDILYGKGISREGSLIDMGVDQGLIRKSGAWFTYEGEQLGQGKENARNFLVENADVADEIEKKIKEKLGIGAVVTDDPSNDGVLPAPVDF
# [4] = biological target: T5, Sentrin-specific protease 8 (Homo sapiens, UniProt Q96LD8); type: functional
# T5 sequence (Q96LD8 whole entry): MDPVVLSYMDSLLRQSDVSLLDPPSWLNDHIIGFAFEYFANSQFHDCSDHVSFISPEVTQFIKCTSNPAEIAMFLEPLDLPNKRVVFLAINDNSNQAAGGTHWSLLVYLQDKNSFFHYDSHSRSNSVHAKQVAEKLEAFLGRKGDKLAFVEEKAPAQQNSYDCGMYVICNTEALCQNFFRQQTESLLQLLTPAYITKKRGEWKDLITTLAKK
# [5] = biological target: T5, Sentrin-specific protease 8; type: functional; remark: listed apart in the source
# [6] = inhibition of ARNT PAS-B/TACC3 complex formation – biochemical, AlphaScreen, cherry-picked samples, confirmation (AID 651703); type: functional, Homo sapiens;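 also: His-tagged ARNT PAS-B domain paired with GST-TACC3 E629A dimer coactivator fragment; potency of inhibitors that break up the complex and lower AlphaScreen signal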
# [7] = biological target: T6, Tyrosyl-DNA phosphodiesterase 2 (Homo sapiens, UniProt O95551); test: potency against TDP2 phosphodiesterase activity – biochemical, epi absorbance, IC50, dose response (AID 743297)
# T6 sequence (O95551 whole entry): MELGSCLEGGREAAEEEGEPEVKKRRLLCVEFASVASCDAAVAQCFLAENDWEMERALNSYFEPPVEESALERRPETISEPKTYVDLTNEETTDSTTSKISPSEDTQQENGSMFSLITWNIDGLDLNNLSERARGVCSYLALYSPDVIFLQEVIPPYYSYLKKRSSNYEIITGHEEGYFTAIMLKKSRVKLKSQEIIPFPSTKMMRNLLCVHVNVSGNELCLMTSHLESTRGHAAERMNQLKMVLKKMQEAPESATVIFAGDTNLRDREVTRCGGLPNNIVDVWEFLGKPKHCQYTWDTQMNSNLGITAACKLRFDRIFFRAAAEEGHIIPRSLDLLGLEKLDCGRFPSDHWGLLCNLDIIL
# [8] = viability loss in HEK293T cells – cell-based, cherry-picks, cytotoxicity control for HIV Vif inhibitor project, dose response (AID 652208); type: functional
# [9] = system: Streptococcus sp. 'group A'; test: Streptococcus pyogenes SK(-)GAS viability under kanamycin – luminescence, BacTiterGlo, confirmation, counter-screen for streptokinase expression inhibitor project, dose response (AID 1900); type: functional, organism-based
# Streptococcus = test: GAS UMAA2166 growth inhibition – luminescence, BacTiterGlo, counter-screen for streptokinase expression inhibitor project, dose response (AID 1915); type: functional, organism-based;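 also: potency for reduction of bacterial viability or growth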
# [10] = Luminescence Cell-Based Dose Retest to Confirm Inhibitors of Cancer Stem Cells. [Related pubchem assays (depositor defined):AID2717, AID2721]; type: functional; conditions: Homo sapiens
# [11] = biological target: T7, Corticotropin-releasing factor receptor 2/Corticotropin-releasing factor-binding protein (Homo sapiens, UniProt P24387+Q13324); test: Dose Response confirmation of uHTS hits for small molecule antagonists of the CRF-binding protein and CRF-R2 receptor complex.; type: functional; conditions: read-out: IC50_Mean
# T7 sequence (Q13324 whole entry): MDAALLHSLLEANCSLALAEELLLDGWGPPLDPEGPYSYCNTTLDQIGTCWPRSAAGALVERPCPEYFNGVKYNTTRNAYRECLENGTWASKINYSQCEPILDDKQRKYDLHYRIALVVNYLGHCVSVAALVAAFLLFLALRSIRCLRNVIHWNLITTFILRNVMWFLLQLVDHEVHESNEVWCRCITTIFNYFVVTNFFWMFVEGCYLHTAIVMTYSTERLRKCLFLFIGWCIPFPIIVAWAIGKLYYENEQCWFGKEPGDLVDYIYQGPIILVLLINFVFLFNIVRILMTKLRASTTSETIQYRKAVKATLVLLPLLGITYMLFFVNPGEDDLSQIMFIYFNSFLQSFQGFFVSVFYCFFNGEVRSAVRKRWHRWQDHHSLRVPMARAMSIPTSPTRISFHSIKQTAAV
# T7 sequence (P24387 whole entry): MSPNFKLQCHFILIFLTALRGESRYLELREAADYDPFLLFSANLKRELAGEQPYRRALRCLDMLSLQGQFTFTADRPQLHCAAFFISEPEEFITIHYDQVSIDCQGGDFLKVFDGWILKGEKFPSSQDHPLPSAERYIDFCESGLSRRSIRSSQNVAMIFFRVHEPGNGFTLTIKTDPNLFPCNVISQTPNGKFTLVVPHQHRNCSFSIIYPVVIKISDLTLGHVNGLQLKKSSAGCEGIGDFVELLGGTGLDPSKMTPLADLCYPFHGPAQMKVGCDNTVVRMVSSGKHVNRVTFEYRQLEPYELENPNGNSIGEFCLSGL
# [12] = biological target: T7, Corticotropin-releasing factor receptor 2/Corticotropin-releasing factor-binding protein; test: activators of CRF receptor 2 with binding protein – uHTS hits, confirmation (AID 602473); type: functional; conditions: read-out: EC50_Mean
# Galanin receptor type 3 = Galanin receptor type 3 (Homo sapiens, UniProt O60755); test: Fluorescence-based cell-based primary high throughput dose response assay to identify antagonists of the Galanin Receptor 3 (GalR3).; type: functional
# Sequence of Galanin receptor type 3 (O60755 whole entry): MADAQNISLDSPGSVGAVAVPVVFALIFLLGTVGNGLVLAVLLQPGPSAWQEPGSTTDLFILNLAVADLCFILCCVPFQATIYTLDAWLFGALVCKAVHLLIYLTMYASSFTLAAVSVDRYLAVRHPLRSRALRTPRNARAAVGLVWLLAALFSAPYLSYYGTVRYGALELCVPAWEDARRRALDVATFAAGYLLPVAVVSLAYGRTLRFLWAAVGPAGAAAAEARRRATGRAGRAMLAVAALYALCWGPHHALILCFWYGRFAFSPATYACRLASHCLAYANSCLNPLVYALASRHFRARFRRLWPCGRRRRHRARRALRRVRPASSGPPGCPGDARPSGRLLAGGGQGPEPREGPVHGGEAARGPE
# cells [13] = type: functional, cell-based; conditions: HEK-CNG
# [14] = off-target signal loss in HeLa-CEM21 co-culture – HeLa F-luc CTL cells, cherry-picked, counter-screen for HIV-1 Env fusion inhibitor project, dose response (AID 652040); type: functional, cell-based;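 also: potency for signal decrease marking cytotoxic or nonspecific inhibition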
# [15] = HIV-1 AD8 envelope cell-cell fusion blockers – cherry-pick, dose response (AID 652062); type: functional, cell-based;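 also: luciferase signal from cell-cell fusion driven by HIV-1 clade B AD8 Env; potency is for inhibitors of fusion seen as a drop in luminescence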
# Cytochrome P450 2C9 = Cytochrome P450 2C9 (Homo sapiens, UniProt P11712)
# Sequence of Cytochrome P450 2C9 (P11712 whole entry): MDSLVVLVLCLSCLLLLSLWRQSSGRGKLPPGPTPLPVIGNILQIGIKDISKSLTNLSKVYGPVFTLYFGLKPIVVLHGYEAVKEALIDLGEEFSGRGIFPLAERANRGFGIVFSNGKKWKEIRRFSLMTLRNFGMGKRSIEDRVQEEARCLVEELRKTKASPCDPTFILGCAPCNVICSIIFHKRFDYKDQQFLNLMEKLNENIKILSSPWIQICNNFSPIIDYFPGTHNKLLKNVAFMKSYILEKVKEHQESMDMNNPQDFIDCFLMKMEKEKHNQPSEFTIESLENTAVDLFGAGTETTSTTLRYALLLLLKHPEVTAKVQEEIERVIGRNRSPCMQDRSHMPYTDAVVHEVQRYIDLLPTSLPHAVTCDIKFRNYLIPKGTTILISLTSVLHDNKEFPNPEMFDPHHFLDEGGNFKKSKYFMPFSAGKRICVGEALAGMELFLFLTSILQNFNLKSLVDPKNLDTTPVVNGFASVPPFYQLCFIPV
# cells [16] = type: functional, cell-based
# [17] = biological target: T8, Trace amine-associated receptor 1 (Homo sapiens, UniProt Q96RJ0); test: Fluorescence-based cell-based high throughput dose response assay to identify agonists of the human trace amine associated receptor 1 (TAAR1).; type: functional
# T8 sequence (Q96RJ0 whole entry): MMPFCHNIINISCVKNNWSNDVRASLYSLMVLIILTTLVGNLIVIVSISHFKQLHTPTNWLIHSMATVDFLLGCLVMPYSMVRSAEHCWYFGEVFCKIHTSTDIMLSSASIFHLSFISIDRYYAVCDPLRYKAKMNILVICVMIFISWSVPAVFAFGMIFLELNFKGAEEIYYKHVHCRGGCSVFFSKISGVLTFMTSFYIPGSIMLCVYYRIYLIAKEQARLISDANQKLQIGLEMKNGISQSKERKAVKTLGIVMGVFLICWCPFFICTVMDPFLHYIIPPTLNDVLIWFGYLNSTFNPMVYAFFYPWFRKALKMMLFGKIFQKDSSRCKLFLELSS
# [18] = biological target: T8, Trace amine-associated receptor 1; test: Counterscreen for agonists of the human trace amine associated receptor 1 (hTAAR1): Fluorescence-based cell-based high throughput dose response assay to identify hTAAR1 agonist that also desensitize TAAR1 receptor response.; type: functional
# cells [19] = type: functional, cell-based; remark: listed apart in the source
# [20] = mouse fibroblast viability loss – cell-based, cherry-pick samples, set 2, cytotoxicity control for T. cruzi growth inhibitor project, dose response (AID 651817); type: functional; conditions: NIH3T3
smiles,measurement,setting,value
Cc1n[nH]c(O)c1C(c1ccc(-c2ccccc2C(=O)O)o1)c1c(C)n[nH]c1O,EC50,[1],148 µM (active)
same,EC50,[2],37 µM (active)
same,AC50,[3],0.335 µM (active)
same,EC50,Protein RecA,0.256 µM (active)
same,IC50,[4],> 100 µM (inactive)
same,IC50,[5],16.4 µM (active)
same,AC50,[6],82.1 µM (active)
same,IC50,[7],> 128 µM (inactive)
COc1cc(NC(=O)c2ccc(-c3csc(C)n3)cc2)c(OC)cc1Cl,AC50,[8],38.2 µM (active)
Cc1nn2c(COc3ccc(NC(=O)c4ccccc4Cl)cc3)nnc2c2ccccc12,EC50,[9],2.06 µM (active)
same,EC50,Streptococcus,1.36 µM (active)
same,AC50,[10],2.59 µM (active)
same,AC50,[8],> 52 µM (inactive)
Cc1nn(C)c(Cl)c1NC(=O)OCc1ccc(Cl)cc1Cl,IC50,[11],> 47.1 µM (inactive)
same,EC50,[12],> 53 µM (inactive)
same,IC50,Galanin receptor type 3,2.13 µM (active)
same,EC50,cells [13],> 29.9 µM (inactive)
same,AC50,[14],> 70 µM (inactive)
same,AC50,[15],22.5 µM (active)
same,AC50,Cytochrome P450 2C9,inconclusive
O=C(CSC1=Nc2ccc(Cl)cc2S(=O)(=O)N1)NCCc1ccccc1,IC50,cells [16],> 29.9 µM (inactive)
same,EC50,[17],0.295 µM (active)
same,IC50,[18],2.41 µM (active)
same,EC50,cells [19],> 29.9 µM (inactive)
C[C@H](CO)N1C[C@H](C)[C@H](CN(C)Cc2ccc(Cl)c(Cl)c2)Oc2c(NC(=O)c3ccncc3)cccc2C1=O,AC50,[20],39 µM (inactive)
COc1ccc(CN(C)C[C@H]2Oc3c(NC(=O)Nc4ccc(C(F)(F)F)cc4)cccc3C(=O)N([C@@H](C)CO)C[C@@H]2C)cc1,AC50,[20],14.4 µM (active)
